Results reported in US11484029B2, “Method for controlling building-inhabiting pest and composition for controlling building-inhabiting pest” (priority 2017, dated 2022).

Legend:
Denken German cockroach = test: Forced contact with treated glass disc; type: in vivo, Blattella germanica; settings: forcibly brought into contact with glass disc treated at 0.3 μg/cm^2, within 48 hours
Experimental: The Denken German cockroach had 100% knockdown within 48 hours when forcibly brought into contact with a glass disc that had been treated with the compound of Formula (2) and etofenprox so as to have a concentration of 0.3 μg/cm^2.

[1] = test system: bed bug (Cimex lectularius); test: Drug efficacy test, topical application (50% lethal dose); type: in vivo; settings: for 50% lethal dose: female adult, topical application, mortality three days later
Text: (§1) Test drug: a compound represented by Formula (2)
(§2) Test insect: Watarida colony (susceptible strain) of German cockroach (Blattella germanica); Hamamatsu-cho colony (resistant strain) of German cockroach (Blattella germanica); Teikyo University colony (susceptible strain) of bed bug (Cimex lectularius); and Chiba colony (resistant strain) of bed bug (Cimex lectularius),
(§3) Insecticidal test: An acetone solution of a compound represented by Formula (2) was applied to the chest of a target insect female adult by using a topical application device. The mortality was examined six days later for the German cockroach and three days later for the bed bug, and each 50% lethal dose was determined. Further, the resistance ratio was calculated by the following equation. Resistance ratio=50% lethal dose of resistant strain/50% lethal dose of susceptible strain

[2] = test system: Denken colony (susceptible strain) of German cockroach (Blattella germanica); test: Repellency test (treated vs non-treated shelter); type: in vivo; settings: 0.3 μg/cm^2, after 7 days
Experimental: Sample: a compound represented by Formula (2), and etofenprox (control agent)
Test insect: Denken colony (susceptible strain) of German cockroach (Blattella germanica)
Test method: A test compound diluted with acetone was treated and dried on a glass disc having a diameter of 12 cm so as to be 0.3 μg/cm^2. A pet cup having 6 cm in inner diameter×0.5 cm in height was cut so as to have an entrance, and the pet cup was turned over and placed on the glass disc to make a shelter. A non-treated shelter and a drug-treated shelter were placed in the center of an acrylic box having 30 cm×15 cm, well water and rat feed were added as food, and 15 males and 15 females of German cockroach were released. After 7 days, the number of surviving insects, the number of dead insects, the number of agonizing insects, and the habitat were examined. Further, a KD (knockdown) rate and a repellency rate were calculated by the following equations. KD rate (%)=(the number of dead insects+the number of agonizing insects)/the number of released insects×100 Repellency rate (%)=(1−the number of cockroaches in treated area/(the number of cockroaches in treated area+the number of cockroaches in non-treated area)×100

[3] = test system: German cockroach (Blattella germanica); test: Drug efficacy test, topical application (50% lethal dose); type: in vivo; settings: for 50% lethal dose: female adult, topical application, mortality six days later
Text: as §1, §2, §3

[4] = test system: Watarida colony (susceptible strain) of German cockroach (Blattella germanica); test: Heat volatilization test; type: in vivo; settings: 1 g of sample heated at 300° C., after 15 hours
Experimental: Sample: a compound represented by Formula (2)
Test insect: Watarida colony (susceptible strain) of German cockroach (Blattella germanica)
After 15 hours, examination of life or death was performed on the tested cockroaches, and the fatality rate was calculated.

SMILES | knockdown (Denken German cockroach) [%] | repellent effect (conclusion in words) [2] | Non-treated shelter Number of agonizing insects ([2]; Total (30 released)) | Non-treated shelter Number of dead insects ([2]; Total (30 released)) | Non-treated shelter Number of surviving insects ([2]; Total (30 released)) | Outside the area Number of agonizing insects ([2]; Total (30 released)) | Outside the area Number of dead insects ([2]; Total (30 released)) | Outside the area Number of surviving insects ([2]; Total (30 released)) | Treated shelter Number of agonizing insects ([2]; Total (30 released)) | Treated shelter Number of dead insects ([2]; Total (30 released)) | Treated shelter Number of surviving insects ([2]; Total (30 released)) | KD rate ([2]; Total) [%] | Non-treated shelter Number of agonizing insects ([2]; female (15 released)) | Non-treated shelter Number of dead insects ([2]; female (15 released)) | Non-treated shelter Number of surviving insects ([2]; female (15 released)) | Outside the area Number of agonizing insects ([2]; female (15 released)) | Outside the area Number of dead insects ([2]; female (15 released)) | Outside the area Number of surviving insects ([2]; female (15 released)) | Treated shelter Number of agonizing insects ([2]; female (15 released)) | Treated shelter Number of dead insects ([2]; female (15 released)) | also measured
CCOc1ccc(C(C)(C)COCc2cccc(Oc3ccccc3)c2)cc1 [Etofenprox, etofenprox] | 100 | has a repellent effect | 0 | 0 | 29 | 0 | 1 | 0 | 0 | 0 | 0 | 3 | 0 | 0 | 15 | 0 | 0 | 0 | 0 | 0 | Resistance ratio ([1]; etofenprox to bed bugs, strains not stated): ≥ 10000; Repellency rate ([2]; Total): 100%; Treated shelter Number of surviving insects ([2]; female (15 released)): 0; KD rate ([2]; female): 0%; Repellency rate ([2]; female): 100%; Non-treated shelter Number of agonizing insects ([2]; male (15 released)): 0; Non-treated shelter Number of dead insects ([2]; male (15 released)): 0; Non-treated shelter Number of surviving insects ([2]; male (15 released)): 14; Outside the area Number of agonizing insects ([2]; male (15 released)): 0; Outside the area Number of dead insects ([2]; male (15 released)): 1; Outside the area Number of surviving insects ([2]; male (15 released)): 0; Treated shelter Number of agonizing insects ([2]; male (15 released)): 0; Treated shelter Number of dead insects ([2]; male (15 released)): 0; Treated shelter Number of surviving insects ([2]; male (15 released)): 0; KD rate ([2]; male): 7%; Repellency rate ([2]; male): 100%
CN(C(=O)c1ccccc1)c1cccc(C(=O)Nc2c(Br)cc(C(F)(C(F)(F)F)C(F)(F)F)cc2C(F)(F)F)c1F [Compound represented by Formula (2), 2-fluoro-3-(N-methylbenzamide)-N-(2-bromo-6-trifluoromethyl-4-(heptafluoropropane-2-yl)phenyl)benzamide] | 100 | has no repellent effect | 0 | 0 | 0 | 3 | 27 | 0 | 0 | 0 | 0 | 100 | 0 | 0 | 0 | 2 | 13 | 0 | 0 | 0 | Resistance ratio ([3]; 50% lethal dose of resistant strain (Hamamatsu-cho)/susceptible strain (Watarida)): 1.9; 50% lethal dose ([3]; Hamamatsu-cho colony (resistant strain)): 21.5 ng/insect; 50% lethal dose ([3]; Watarida colony (susceptible strain)): 11.2 ng/insect; Resistance ratio ([1]; 50% lethal dose of resistant strain (Chiba)/susceptible strain (Teikyo University)): 11.4; 50% lethal dose ([1]; Chiba colony (resistant strain)): 14.8 ng/insect; 50% lethal dose ([1]; Teikyo University colony (susceptible strain)): 1.3 ng/insect; Treated shelter Number of surviving insects ([2]; female (15 released)): 0; KD rate ([2]; female): 100%; Non-treated shelter Number of agonizing insects ([2]; male (15 released)): 0; Non-treated shelter Number of dead insects ([2]; male (15 released)): 0; Non-treated shelter Number of surviving insects ([2]; male (15 released)): 0; Outside the area Number of agonizing insects ([2]; male (15 released)): 1; Outside the area Number of dead insects ([2]; male (15 released)): 14; Outside the area Number of surviving insects ([2]; male (15 released)): 0; Treated shelter Number of agonizing insects ([2]; male (15 released)): 0; Treated shelter Number of dead insects ([2]; male (15 released)): 0; Treated shelter Number of surviving insects ([2]; male (15 released)): 0; KD rate ([2]; male): 100%; fatality rate ([4]; inside the slit box): 100%; fatality rate ([4]; outside the slit box): 100%
